Converted amounts (≈) assume the structure as drawn.
Key:
Type in all cases: functional
Escherichia coli [1] = experiment: Antibacterial activity against Gram-negative Escherichia coli K-12 AG100 expressing AcrAB-TolC efflux pump assessed as inhibition of bacterial growth by CLSI protocol based assay
Staphylococcus aureus [2] = experiment: Inhibition of efflux pump in Gram-positive methicillin-susceptible Staphylococcus aureus ATCC 25923 assessed as relative fluorescence index using ethidium bromide as substrate at 50 uM and measured after 1 hr by fluorescence based microtiter plate reader analysis
Staphylococcus aureus [3] = experiment: (§1) Antibacterial activity against Gram-positive methicillin-susceptible Staphylococcus aureus ATCC 25923 assessed as inhibition of efflux pump by measuring intracellular accumulation of ethidium bromide at 100 uM and measured every minute for 1 hr by fluorescence based microtiter plate reader analysis
Staphylococcus aureus [4] = experiment: Inhibition of efflux pump in Gram-positive methicillin and oxacillin-resistant Staphylococcus aureus ATCC 43300 assessed as relative fluorescence index using ethidium bromide as substrate at 50 uM and measured after 1 hr by fluorescence based microtiter plate reader analysis
Staphylococcus aureus [5] = experiment: as §1, with “methicillin and oxacillin-resistant” for “methicillin-susceptible”, “43300” for “25923”, “50” for “100”
Staphylococcus aureus [6] = experiment: (§2) Antibacterial activity against Gram-positive methicillin-susceptible Staphylococcus aureus ATCC 25923 assessed as inhibition of efflux pump by measuring intracellular accumulation of ethidium bromide at 50 uM and measured every minute for 1 hr by fluorescence based microtiter plate reader analysis
Escherichia coli [7] = experiment: Inhibition of efflux pump in Gram-negative Escherichia coli K-12 AG100 expressing AcrAB-TolC efflux pump assessed as relative fluorescence index using ethidium bromide as substrate at 50 uM and measured after 1 hr by fluorescence based microtiter plate reader analysis
Staphylococcus aureus [8] = experiment: Antibacterial activity against Gram-positive methicillin and oxacillin-resistant Staphylococcus aureus ATCC 43300 assessed as inhibition of bacterial growth by CLSI protocol based assay
Escherichia coli [9] = experiment: as §1, with “Gram-negative Escherichia coli K-12 AG100 expressing AcrAB-TolC efflux pump” for “Gram-positive methicillin-susceptible Staphylococcus aureus ATCC 25923”
Escherichia coli [10] = experiment: Inhibition of efflux pump in Gram-negative Escherichia coli K-12 AG100 expressing AcrAB-TolC efflux pump assessed as relative fluorescence index using ethidium bromide as substrate at 100 uM and measured after 1 hr by fluorescence based microtiter plate reader analysis
Staphylococcus aureus [11] = experiment: Antibacterial activity against Gram-positive methicillin-susceptible Staphylococcus aureus ATCC 25923 assessed as inhibition of bacterial growth by CLSI protocol based assay
Escherichia coli [12] = experiment: as §2, with “Gram-negative Escherichia coli K-12 AG100 expressing AcrAB-TolC efflux pump” for “Gram-positive methicillin-susceptible Staphylococcus aureus ATCC 25923”
Staphylococcus aureus [13] = experiment: Inhibition of efflux pump in Gram-positive methicillin-susceptible Staphylococcus aureus ATCC 25923 assessed as relative fluorescence index using ethidium bromide as substrate at 100 uM and measured after 1 hr by fluorescence based microtiter plate reader analysis
Staphylococcus aureus [14] = experiment: Inhibition of efflux pump in Gram-positive methicillin and oxacillin-resistant Staphylococcus aureus ATCC 43300 assessed as relative fluorescence index using ethidium bromide as substrate at 100 uM and measured after 1 hr by fluorescence based microtiter plate reader analysis
Staphylococcus aureus [15] = experiment: as §1, with “methicillin and oxacillin-resistant” for “methicillin-susceptible”, “43300” for “25923”
Staphylococcus aureus [16] = experiment: as §1, with “3.125” for “100”
Staphylococcus aureus [17] = experiment: Inhibition of efflux pump in Gram-positive methicillin-susceptible Staphylococcus aureus ATCC 25923 assessed as relative fluorescence index using ethidium bromide as substrate at 3.125 uM and measured after 1 hr by fluorescence based microtiter plate reader analysis
Staphylococcus aureus [18] = experiment: as §1, with “methicillin and oxacillin-resistant” for “methicillin-susceptible”, “43300” for “25923”, “25” for “100”
Staphylococcus aureus [19] = experiment: Antibacterial activity against Gram-positive methicillin-susceptible Staphylococcus aureus ATCC 25923 assessed as inhibition of efflux pump by measuring intracellular accumulation of ethidium bromide at 25 uM and measured every minute for 1 hr by fluorescence based microtiter plate reader analysis
Staphylococcus aureus [20] = experiment: Inhibition of efflux pump in Gram-positive methicillin and oxacillin-resistant Staphylococcus aureus ATCC 43300 assessed as relative fluorescence index using ethidium bromide as substrate at 25 uM and measured after 1 hr by fluorescence based microtiter plate reader analysis
Staphylococcus aureus [21] = experiment: Inhibition of efflux pump in Gram-positive methicillin-susceptible Staphylococcus aureus ATCC 25923 assessed as relative fluorescence index using ethidium bromide as substrate at 25 uM and measured after 1 hr by fluorescence based microtiter plate reader analysis

CCOC(=O)C(c1ccc2ccccc2c1O)N1CCOCC1 (centres undefined)
MIC (Escherichia coli [1]): > 100 µM
Activity (Staphylococcus aureus [2]): -0.58
Activity (Staphylococcus aureus [3]): 7624.33
Activity (Staphylococcus aureus [4]): -0.28
Activity (Staphylococcus aureus [5]): 56126.33
Activity (Staphylococcus aureus [6]): 11677.33
Activity (Escherichia coli [7]): -0.78
MIC (Staphylococcus aureus [8]): > 100 µM
Activity (Escherichia coli [9]): 6561.67
Activity (Escherichia coli [10]): -0.81
MIC (Staphylococcus aureus [11]): > 100 µM
Activity (Escherichia coli [12]): 7485.67
Activity (Staphylococcus aureus [13]): -0.72
Activity (Staphylococcus aureus [14]): -0.76
Activity (Staphylococcus aureus [15]): 18886

CCOC(=O)C(c1c(O)ccc2ccccc12)N1CCOCC1 (centres undefined)
MIC (Escherichia coli [1]): > 100 µM
Activity (Staphylococcus aureus [2]): 1.1
Activity (Staphylococcus aureus [3]): 51721
Activity (Staphylococcus aureus [4]): 0.12
Activity (Staphylococcus aureus [5]): 87762.67
Activity (Staphylococcus aureus [6]): 58168.67
Activity (Escherichia coli [7]): 0.29
MIC (Staphylococcus aureus [8]): > 100 µM
Activity (Escherichia coli [9]): 36685.33
Activity (Escherichia coli [10]): 0.07
MIC (Staphylococcus aureus [11]): > 100 µM
Activity (Escherichia coli [12]): 44310
Activity (Staphylococcus aureus [13]): 0.87
Activity (Staphylococcus aureus [14]): 0.08
Activity (Staphylococcus aureus [15]): 84280

CCOC(=O)[C@H]1c2c(ccc3ccccc23)O[C@@H]2c3ccsc3CCN21 (relative stereo)
MIC (Escherichia coli [1]): > 100 µM
Activity (Staphylococcus aureus [2]): 0.06
Activity (Staphylococcus aureus [3]): 33816.67
Activity (Staphylococcus aureus [4]): 0.13
Activity (Staphylococcus aureus [5]): 88184.67
Activity (Staphylococcus aureus [6]): 29306
Activity (Escherichia coli [7]): 0
MIC (Staphylococcus aureus [8]): > 100 µM
Activity (Escherichia coli [9]): 34921.33
Activity (Escherichia coli [10]): 0.02
MIC (Staphylococcus aureus [11]): > 100 µM
Activity (Escherichia coli [12]): 34078.33
Activity (Staphylococcus aureus [13]): 0.22
Activity (Staphylococcus aureus [14]): 0.14
Activity (Staphylococcus aureus [15]): 88655.67

CCOC(=O)[C@H]1c2c(ccc3ccccc23)O[C@@H]2c3ccccc3CCN21 (relative stereo)
MIC (Escherichia coli [1]): > 100 µM
Activity (Staphylococcus aureus [2]): 0.15
Activity (Staphylococcus aureus [3]): 31231.67
Activity (Staphylococcus aureus [4]): 0.19
Activity (Staphylococcus aureus [5]): 92734
Activity (Staphylococcus aureus [6]): 31759
Activity (Escherichia coli [7]): 0.05
MIC (Staphylococcus aureus [8]): > 100 µM
Activity (Escherichia coli [9]): 36732
Activity (Escherichia coli [10]): 0.07
MIC (Staphylococcus aureus [11]): > 100 µM
Activity (Escherichia coli [12]): 35837.67
Activity (Staphylococcus aureus [13]): 0.13
Activity (Staphylococcus aureus [14]): 0.2
Activity (Staphylococcus aureus [15]): 93822.67

CCOC(=O)[C@H]1c2c(ccc3ccccc23)O[C@@H]2c3[nH]c4ccccc4c3CCN21 (relative stereo)
MIC (Escherichia coli [1]): > 100 µM
Activity (Staphylococcus aureus [2]): 0.01
Activity (Staphylococcus aureus [3]): 29131.67
Activity (Staphylococcus aureus [4]): -0.03
Activity (Staphylococcus aureus [5]): 76072
Activity (Staphylococcus aureus [6]): 27892.33
Activity (Escherichia coli [7]): 0.01
MIC (Staphylococcus aureus [8]): > 100 µM
Activity (Escherichia coli [9]): 36337.67
Activity (Escherichia coli [10]): 0.06
MIC (Staphylococcus aureus [11]): > 100 µM
Activity (Escherichia coli [12]): 34706
Activity (Staphylococcus aureus [13]): 0.05
Activity (Staphylococcus aureus [14]): 0
Activity (Staphylococcus aureus [15]): 78009

CCOC(=O)[C@H]1c2ccc3ccccc3c2O[C@@H]2c3[nH]c4ccccc4c3CCN21 (relative stereo)
MIC (Escherichia coli [1]): > 100 µM
Activity (Staphylococcus aureus [16]): 34824.33
Activity (Staphylococcus aureus [17]): 0.26
Activity (Staphylococcus aureus [4]): 0.09
Activity (Staphylococcus aureus [5]): 84683
Activity (Escherichia coli [7]): -0.02
MIC (Staphylococcus aureus [8]): > 100 µM
Activity (Escherichia coli [9]): 32220.33
Activity (Escherichia coli [10]): -0.06
MIC (Staphylococcus aureus [11]): 6.25 µM (≈ 2.49 µg/mL)
Activity (Escherichia coli [12]): 33567.67
Activity (Staphylococcus aureus [14]): 0.16
Activity (Staphylococcus aureus [15]): 90479.33

CCOC(=O)[C@H]1c2ccc3ccccc3c2O[C@@H]2c3ccsc3CCN21 (relative stereo)
MIC (Escherichia coli [1]): > 100 µM
Activity (Staphylococcus aureus [2]): 0.33
Activity (Staphylococcus aureus [3]): 77859.67
Activity (Staphylococcus aureus [4]): 0.3
Activity (Staphylococcus aureus [5]): 101450.33
Activity (Staphylococcus aureus [6]): 36826.67
Activity (Escherichia coli [7]): 0.01
MIC (Staphylococcus aureus [8]): > 100 µM
Activity (Escherichia coli [9]): 35945.67
Activity (Escherichia coli [10]): 0.05
MIC (Staphylococcus aureus [11]): > 100 µM
Activity (Escherichia coli [12]): 34561.67
Activity (Staphylococcus aureus [13]): 1.82
Activity (Staphylococcus aureus [14]): 0.33
Activity (Staphylococcus aureus [15]): 103410

CCOC(=O)[C@H]1c2ccc3ccccc3c2O[C@@H]2c3ccccc3CCN21 (relative stereo)
MIC (Escherichia coli [1]): > 100 µM
Activity (Staphylococcus aureus [2]): 0.61
Activity (Staphylococcus aureus [3]): 42864
Activity (Staphylococcus aureus [4]): 0.43
Activity (Staphylococcus aureus [5]): 111300.67
Activity (Staphylococcus aureus [6]): 44414.33
Activity (Escherichia coli [7]): 0.09
MIC (Staphylococcus aureus [8]): > 100 µM
Activity (Escherichia coli [9]): 36999.33
Activity (Escherichia coli [10]): 0.08
MIC (Staphylococcus aureus [11]): > 100 µM
Activity (Escherichia coli [12]): 37156.33
Activity (Staphylococcus aureus [13]): 0.55
Activity (Staphylococcus aureus [14]): 0.46
Activity (Staphylococcus aureus [15]): 114226

N#CC(C#N)=NNc1cccc(Cl)c1 [CARBONYL CYANIDE M-CHLOROPHENYLHYDRAZONE]
Activity (Escherichia coli [7]): 1.12
Activity (Escherichia coli [12]): 72448.33

COC(=O)[C@H]1[C@H]2C[C@@H]3c4[nH]c5cc(OC)ccc5c4CCN3C[C@H]2C[C@@H](OC(=O)c2cc(OC)c(OC)c(OC)c2)[C@@H]1OC [RESERPINE]
Activity (Staphylococcus aureus [18]): 101532.7
Activity (Staphylococcus aureus [19]): 54056
Activity (Staphylococcus aureus [20]): 0.3
Activity (Staphylococcus aureus [21]): 0.96

Source: ChEMBL document CHEMBL5120842, “Application of partially aromatic ortho-quionone-methides for the synthesis of novel naphthoxazines with improved antibacterial activity” (2022)
